Our source for the IC50 values is publication PMC2586124 (Journal of natural products, 2008).

For the assay, the target named is HIV-1 RNase H (Human immunodeficiency virus type 1 group M subtype B, UniProt P04585). The assay can be described thus: RNase H FRET assay, HIV-1 RNase H. Type of assay: biochemical. As to conditions: IC50, HIV-1 RNase H, in vitro.

pIC50: −log10 of the molar value.

`O=C(OC[C@H]1O[C@@H](Oc2ccc(O)cc2)[C@H](OC(=O)c2cc(O)c(O)c(O)c2)[C@@H](O)[C@@H]1O)c1ccc(O)cc1` [hyemaloside B (2), hyemaloside B] showed a pIC50 of less than 4.74.
